Measurements as given in PubChem BioAssay AID2060513 (Molecular Pharmacology Branch, DTP, NCI, 2025).
Where “and” joins values, the source holds several entries; their conditions need not be identical. Identical values can stand only once.

Tested on: 299254-011-R-J1-PDC complex spheroids viability
Assay: Anticancer human tumor 299254-011-R-J1-PDC patient-derived melanoma cell line growth inhibition [GQUAD]
Conditions: for viability, T/C: stronger effect = lower value
Source text: DNA G-quadruplex Stabilizer Agents in Combinations in Complex Spheroids
A high-throughput screen of multi-cell type tumor spheroids was designed to identify active combinations of DNA G-quadruplex stabilizer agents and targeted small molecules. Complex spheroids include a stromal component modeled by human endothelial cells (HUVEC) and fibroblasts modeled by human mesenchymal stem cells (MSCs). The concentration ranges selected for each drug and investigational agent were based upon clinically achievable concentrations if the clinical Cmax of the agent was known.
Compounds. The drugs and investigational agents: pidnarulex (CX-5461; NSC782164), APTO-253 (NSC789042), BRACO-19 (NSC847499), peposertib (NSC802822), ceralasertib (NSC780249), elimusertib (NSC800525), camonsertib (NSC841442), AZD-1390 (NSC803789), olaparib (NSC753686), talazoparib (NSC767125), ART-558 (NSC835418), sotorasib (NSC818433), MRTX-1133 (NSC836407), SN-38 (NSC673596), topotecan (NSC609699), etoposide (NSC141540), doxorubicin (NSC123127), gemcitabine (NSC613327), 5-fluorouracil (NSC19893), paclitaxel (NSC125973), vemurafenib (NSC761431), panobinostat (NSC761190), R-306465 (JNJ-16241199; NSC773264), adavosertib (NSC754352), TP-3654 (NSC805149), carboplatin (NSC241240), KSQ-4279 (NSC840948), and staurosporine (NSC755774) were obtained from the National Cancer Institute (NCI) Developmental Therapeutics Program Chemical Repository (34). The FDA-approved anticancer drug set is available from the NCI Developmental Therapeutics Program. […] The stock solutions were prepared in dimethyl sulfoxide (DMSO, Sigma-Aldrich, St. Louis, MO, cat. D2650) at 800-fold the tested concentration and stored at -70 degrees C prior to their use. All drugs and investigational agents were tested over a range starting from a high concentration at or near the clinical Cmax and decreasing in half-log increments. If the clinical Cmax for an agent had not been determined, the highest concentration tested was 10 microM.
2.3 Cell Culture. All cells were maintained in an incubator at 37 degrees C and 5% CO2 with 95% humidity. The PDC lines were cultured according to standard operating procedures established by the NCI PDMR. All PDCs were thawed and cultured in Matrigel-coated flasks prepared with a working solution of 1X Ham's F-12 nutrient mix, without supplementation (Invitrogen, cat. 11765054), 100 U/mL penicillin-streptomycin (Invitrogen, cat. 15140122), and 2.5% Matrigel (Corning Inc., cat. 354248) for the first three passages. The 857933-349-R-J2-PDC line was cultured in 6C/Colon 1B media, which includes advanced DMEM/F-12 (Thermo Fisher Scientific, cat. 12634028), 10 mM HEPES (Thermo Fisher Scientific, cat. 15630080), 1X GlutaMAX supplement (Thermo Fisher Scientific, cat. 35050061), 0.1 mg/mL primocin (InvivoGen, cat. ant-pm-2), 10% defined fetal bovine serum, heat inactivated (HyClone Laboratories Inc., cat. SH30070.03HI), 50% L-WRN conditioned media (ATCC, cat. CRL-3276), 1.25 mM N-Acetyl-L-cysteine (Sigma-Aldrich, cat. A9165), 10 mM nicotinamide (Sigma-Aldrich, cat. N0636), 1X B-27 supplement (Thermo Fisher Scientific, cat. 17504044), 1X N-2 supplement (Thermo Fisher Scientific, cat. 17502048), 10 microM Y-27632 dihydrochloride (Tocris Bioscience, cat. 1254), and 50 ng/mL human EGF recombinant protein (Thermo Fisher Scientific, cat. PHG0311). The 485176-168-R4-J1-PDC line was cultured in Panc media, which includes all 6C/Colon 1B media components plus 100 ng/mL human FGF-10 (Thermo Fisher Scientific, cat. 100-26), 500 nM SB-431542 (Selleckchem, cat. S1067), and gastrin (Tocris, cat. 3006).
[…]
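Note: spheroids exposed to the agents for seven days before readout.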
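Throughout, for viability, T/C: percent viability relative to DMSO vehicle control wells = 100%.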

In the case of CC(C)(O)C1CCC(Nc2ccc3ncc(-c4cccc(C(F)(F)F)c4)n3n2)CC1 (stereo unspecified), the viability, T/C (compound 0.0316 µM) is reported as 108% and 89.2% and 122%, the viability, T/C (compound 0.1 µM) is reported as 113% and 90% and 91.5% and the viability, T/C (compound 0.316 µM) is reported as 91.8% and 99.5% and 99.2%. For the same molecule, the viability, T/C (compound 1 µM) was 98% and 96.9% and 84.3%, the viability, T/C (compound 3.16 µM) was 95.5% and 102% and 70.9% and the viability, T/C (compound 10 µM) was 119% and 110% and 103%. It also gave an IC50 (curve of compound) of over 10 µM.

For CCCS(=O)(=O)Nc1ccc(F)c(C(=O)c2c[nH]c3ncc(-c4ccc(Cl)cc4)cc23)c1F + Cc1cnc(CNC(=O)c2c(=O)c3ccc(N4CCCN(C)CC4)nc3n3c2sc2ccccc23)cn1, the IC50 (curve of first compound, second compound 0.0316 µM) was 9.46 µM, the IC50 (curve of first compound, second compound 0.1 µM) was 8.9 µM and the IC50 (curve of first compound, second compound 0.316 µM) was 9.48 µM. The IC50 (curve of first compound, second compound 1 µM) was 8.5 µM, the IC50 (curve of first compound, second compound 3.16 µM) was 7.67 µM and the IC50 (curve of first compound, second compound 10 µM) was under 0.0316 µM. It also gave a viability, T/C (second compound 0.0316 µM, first compound 0.0316 µM) of 107%, a viability, T/C (second compound 0.0316 µM, first compound 0.1 µM) of 94% and a viability, T/C (second compound 0.0316 µM, first compound 0.316 µM) of 83.1%. The viability, T/C (second compound 0.0316 µM, first compound 1 µM) was 106%, the viability, T/C (second compound 0.0316 µM, first compound 3.16 µM) was 130% and the viability, T/C (second compound 0.0316 µM, first compound 10 µM) was 47.1%. It also gave a viability, T/C (second compound 0.1 µM, first compound 0.0316 µM) of 119%, a viability, T/C (second compound 0.1 µM, first compound 0.1 µM) of 129% and a viability, T/C (second compound 0.1 µM, first compound 0.316 µM) of 92.9%. The viability, T/C (second compound 0.1 µM, first compound 1 µM) was 128%, the viability, T/C (second compound 0.1 µM, first compound 3.16 µM) was 116% and the viability, T/C (second compound 0.1 µM, first compound 10 µM) was 42.6%. For the same molecule, the viability, T/C (second compound 0.316 µM, first compound 0.0316 µM) was 92.8%, the viability, T/C (second compound 0.316 µM, first compound 0.1 µM) was 109% and the viability, T/C (second compound 0.316 µM, first compound 0.316 µM) was 92.9%. It also gave a viability, T/C (second compound 0.316 µM, first compound 1 µM) of 99%, a viability, T/C (second compound 0.316 µM, first compound 3.16 µM) of 113% and a viability, T/C (second compound 0.316 µM, first compound 10 µM) of 47.5%. It also gave a viability, T/C (second compound 1 µM, first compound 0.0316 µM) of 88.5%, a viability, T/C (second compound 1 µM, first compound 0.1 µM) of 85% and a viability, T/C (second compound 1 µM, first compound 0.316 µM) of 105%. For the same molecule, the viability, T/C (second compound 1 µM, first compound 1 µM) was 96.8%, the viability, T/C (second compound 1 µM, first compound 3.16 µM) was 106% and the viability, T/C (second compound 1 µM, first compound 10 µM) was 42.4%. For the same molecule, the viability, T/C (second compound 3.16 µM, first compound 0.0316 µM) was 85.5%, the viability, T/C (second compound 3.16 µM, first compound 0.1 µM) was 96.6% and the viability, T/C (second compound 3.16 µM, first compound 0.316 µM) was 106%. The viability, T/C (second compound 3.16 µM, first compound 1 µM) was 91.5%, the viability, T/C (second compound 3.16 µM, first compound 3.16 µM) was 118% and the viability, T/C (second compound 3.16 µM, first compound 10 µM) was 35.1%. It also gave a viability, T/C (second compound 10 µM, first compound 0.0316 µM) of 4.58%, a viability, T/C (second compound 10 µM, first compound 0.1 µM) of 0.48% and a viability, T/C (second compound 10 µM, first compound 0.316 µM) of 0.57%. The viability, T/C (second compound 10 µM, first compound 1 µM) was 0.54%, the viability, T/C (second compound 10 µM, first compound 3.16 µM) was 0.42% and the viability, T/C (second compound 10 µM, first compound 10 µM) was 0.34%.

For CC(=O)O[C@H]1C(=O)[C@@]2(C)[C@H]([C@H](OC(=O)c3ccccc3)[C@]3(O)C[C@H](OC(=O)[C@H](O)[C@@H](NC(=O)c4ccccc4)c4ccccc4)C(C)=C1C3(C)C)[C@]1(OC(C)=O)CO[C@@H]1C[C@@H]2O, the viability, T/C (compound 0.0316 µM) was 102% and 92% and 92.4%, the viability, T/C (compound 0.1 µM) was 86.3% and 73.8% and 59% and the viability, T/C (compound 0.316 µM) was 60.6% and 55.7% and 63.9%. For the same molecule, the viability, T/C (compound 1 µM) was 32% and 37.8% and 26.7%, the viability, T/C (compound 3.16 µM) was 18.9% and 18.2% and 24.1% and the viability, T/C (compound 10 µM) was 12% and 17.6% and 19.5%. For the same molecule, the IC50 (curve of compound) was 0.483 µM and 0.423 µM and 0.306 µM.
